Data published in patent publication US5486601A, “Trisazo dye, and aqueous ink composition containing the same” (priority 1993, dated 1996).
Where a name gives a salt, the structure may show the parent alone. Read-outs that look alike come from different tables or passages of the source.

Columns and labels:
[1] = Solubility of dye (Na salt) in water; type: physicochemical
Description: Evaluation Method of Solubility of Dye
A Na salt (2 g) of the resulting dye was dissolved in water (10 g), and the dye solution was filtered and concentrated/dried to determine a solubility (g of dye/100 g of water) of the dye.

[2] = AMES test (reverse mutagenicity test), strain TA98, with and without S-9; type: cell-based; conditions: read-out: magnification of the total number of the mutant colony to the control
Description: (§1) Regarding specimen solutions containing the trisazo compounds (dyes) of the present invention obtained in Examples 1 to 9 and dyes of Comparative Examples 1 to 3, respectively, the total number of the mutant colony was determined using the strain TA98. When the resulting magnification is not more than 2, it is evaluated as "negative". On the other hand, when the resulting magnification is not less than 2, it is evaluated as "positive".
(§2) In Table 1, the modification in case that no drug-metabolizing active enzyme S-9 is added is shown in the column "-" and the modification in case that a drug-metabolizing active enzyme S-9 is added is shown in the column "+".

strain TA98 = assay: as above; type: cell-based; conditions: TA98, with and without S9, 20 to 5000 μg/plate
Description: as §1, §2

[3] = Stability of tetrazonium salt; type: physicochemical
[4] = background statement on known dyes; cited from earlier work
[5] = s9, TA98, with S9, 313 μg/plate
[6] = s9, TA98, with S9, 1250 μg/plate
[7] = s9, TA98, with S9, 5000 μg/plate
[8] = s9, TA98, without S9, 20 μg/plate
[9] = s9, TA98, without S9, 78 μg/plate
[10] = s9, TA98, without S9, 313 μg/plate
[11] = s9, TA98, without S9, 1250 μg/plate
[12] = s9, TA98, without S9, 5000 μg/plate

| Molecule | Solubility Dye(g)/water (100 g) [1] | Solubility Evaluation [1] | fold induction ([2]; s9, TA98, with S9, 20 μg/plate) | fold induction ([2]; s9, TA98, with S9, 78 μg/plate) | fold induction [2, 5] | fold induction [2, 6] | fold induction [2, 7] | fold induction [2, 8] | fold induction [2, 9] | fold induction [2, 10] | fold induction [2, 11] | fold induction [2, 12] | AMES Evaluation (strain TA98) | stability of tetrazonium salt [3] | results of AMES test [4] |
| --- | --- | --- | --- | --- | --- | --- | --- | --- | --- | --- | --- | --- | --- | --- | --- |
| CC(C)c1ccc(N=Nc2c(S(=O)(=O)O)cc3cc(S(=O)(=O)O)c(N=Nc4ccc(C5(c6ccc(N=Nc7ccc(N)cc7O)cc6)CCCCC5)cc4)c(N)c3c2O)cc1 [Example 5] | 13 g of dye/100 g of water | .smallcircle. (solubility is within a range from 10 to 15) | 1.77 | 1.27 | 1.41 | 1.45 | 1.05 | 0.9 | 0.76 | 1.07 | 0.83 | 0.48 | Negative (When the resulting magnification is not more than 2, it is evaluated as "negative") | – | – |
| Cc1ccc(N=Nc2c(S(=O)(=O)O)cc3cc(S(=O)(=O)O)c(N=Nc4ccc(C5(c6ccc(N=Nc7ccc(N)cc7O)cc6)CCCCC5)cc4)c(N)c3c2O)cc1 [Example 6] | 15 g of dye/100 g of water | .circleincircle. (solubility is not less than 15) | 1.38 | 1.43 | 0.95 | 0.68 | 0.65 | 1.19 | 1.22 | 1.48 | 1.3 | 1.15 | Negative (When the resulting magnification is not more than 2, it is evaluated as "negative") | – | – |
| CCCCc1ccc(N=Nc2c(S(=O)(=O)O)cc3cc(S(=O)(=O)O)c(N=Nc4ccc(C5(c6ccc(N=Nc7ccc(N(CC)CC)cc7C)cc6)CCCCC5)cc4)c(N)c3c2O)cc1 [Example 7] | 12 g of dye/100 g of water | .smallcircle. (solubility is within a range from 10 to 15) | 1.03 | 0.92 | 0.81 | 1.08 | 1.03 | 1.05 | 1.1 | 0.9 | 0.62 | 1.1 | Negative (When the resulting magnification is not more than 2, it is evaluated as "negative") | – | – |
| CCCCc1ccc(N=Nc2c(S(=O)(=O)O)cc3cc(S(=O)(=O)O)c(N=Nc4ccc(C5(c6ccc(N=Nc7ccc(N(C)C)cc7C(=O)O)cc6)CCCCC5)cc4)c(N)c3c2O)cc1 [Example 8] | 15 g of dye/100 g of water | .circleincircle. (solubility is not less than 15) | 1.13 | 0.94 | 1.06 | 0.53 | 0.59 | 0.76 | 0.86 | 0.86 | 0.76 | 0.71 | Negative (When the resulting magnification is not more than 2, it is evaluated as "negative") | – | – |
| CCCCc1ccc(N=Nc2c(S(=O)(=O)O)cc3cc(S(=O)(=O)O)c(N=Nc4ccc(C5(c6ccc(N=Nc7ccc(N(C)C)cc7O)cc6)CCCCC5)cc4)c(N)c3c2O)cc1 [Example 9] | 12 g of dye/100 g of water | .smallcircle. (solubility is within a range from 10 to 15) | 1.15 | 1.37 | 0.77 | 0.41 | 0.59 | 0.77 | 0.73 | 0.58 | 0.38 | 0.54 | Negative (When the resulting magnification is not more than 2, it is evaluated as "negative") | – | – |
| N#[N+]c1ccc(C2(c3ccc([N+]#N)cc3)CCCCC2)cc1 [tetrazonium salt, tetrazonium salt of 1,1-bis(4-aminophenyl)cyclohexane] | – | – | – | – | – | – | – | – | – | – | – | – | – | comparatively stable | – |
| C.I. Direct Black 168 [Comparative Example 3, reference compound] | 20 g of dye/100 g of water | .circleincircle. (solubility is not less than 15) | – | – | – | – | – | – | – | – | – | – | – | – | false positive or positive |
